Legend:
[1] = Measurement of particle size, polydispersity index and zeta potential of lipid nanoparticle (Zetasizer); assay type: physicochemical
Method in brief: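 Dialysed LNP solution diluted in ultrapure water; particle size taken as Z-average and PDI by dynamic light scattering (Zetasizer). Zeta potential measured with pH 7.4 Tris-HCl as diluent.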

[2] = tested on: HT1080-EGFP (human/fibrosarcoma) cells; experiment: Evaluation of toxicity: LDH assay; assay type: cell-based; conditions: lipid nanoparticle containing siRNA; absorbance relative to control cells without lipid nanoparticle set at 1.00
Description: A. Provision of Cells • (i) A liquid medium (DMEM/Ham's F12, FBS+, P/S+) (FBS: fetal bovine serum, P/S: antibiotic) was taken out from a refrigerator and temperature-controlled in an incubator set at 37° C. • (ii) A cryotube containing the cells was taken out from a −80° C. freezer and thawed at once in an incubator set at 37° C. • (iii) A stock solution of the thawed cells was collected in a capped test tube. • (iv) The tube containing the cells was washed with the liquid medium, and the wash was also collected in the test tube. • (v) The tube was subjected to a centrifuge to precipitate the cells. • (vi) The supernatant was aspirated, and the liquid medium was added and gently tapped to disperse the cells. • (vii) A small amount of the cells-dispersed liquid medium was collected, and the number of cells was observed and counted under a microscope. • (viii) The cells were seeded in a 24-well plate such that the number of cells was 2×10^4 cells per well. For the plate for an LDH assay described later, the cells were seeded in a 96-well plate such that the number of cells was 4×10^3 cells per well. • (ix) The 24-well plate or the 96-well plate was placed in an incubator, and the cells were cultured for 24 hours under conditions of 37° C. and 5% CO2.
The introduction of lipid nanoparticles into cells for an LDH assay described later was carried out as follows. • (i) A 96-well plate was taken out from an incubator. • (ii) The liquid medium supernatant in the 96-well plate was aspirated and washed with phosphate buffered saline (PBS). • (iii) 160 μL of a liquid medium containing 10% FBS (FBS+/P/S+) was added to the washed 96-well plate. In addition, 40 μL of an LNP solution having an adjusted concentration was added. • (iv) The 96-well plate was placed in the incubator, and the cells were cultured for 24 hours under conditions of 37° C. and 5% CO2.
For Examples 1 to 9, a CCK-8 assay or an LDH assay was carried out to measure the metabolic activity of viable cells and relatively quantify the number of surviving cells to evaluate the toxicity of lipid nanoparticles.
An LDH assay was carried out by using a viable cell counting kit (DOJINDO LABORATORIES, Cytotoxicity LDH Assay Kit-WST) as follows. • (i) 20 μL of a lysis buffer was added to each of positive control wells and incubated at 37° C. for 30 minutes in an incubator. • (ii) 100 μL of the supernatant was taken from each well and transferred to a 96-well plate for measurement. • (iii) 100 μL of the reagent mixture attached to the kit was added to all the wells, and a color reaction was carried out for 30 minutes at room temperature with exclusion of light. • (iv) 50 μL of the stop solution reagent attached to the kit was added to all the wells. • (v) The 96-well plate was measured under conditions of a measurement wavelength of 490 nm and a target wavelength of 630 nm with a plate reader (manufactured by TECAN, Infinite M200) to calculate the absorbance. The absorbance was calculated with the absorbance of control cells to which no lipid nanoparticle was added set at 1.00. When the obtained value was 0.50 or less, a rating of double-circle (excellent) was given, when the obtained value was more than 0.50 and 1.0 or less, a rating of circle (good) was given, when the obtained value was more than 1.0 and less than 6.0, a rating of triangle (fair) was given, and when the obtained value was 6.0 or more, a rating of X-mark (poor) was given.

[3] = lipid nanoparticle containing siRNA, main lipid/DPPC/cholesterol=45/10/45, Z-average in ultrapure water
[4] = lipid nanoparticle containing siRNA, main lipid/DPPC/cholesterol=45/10/45, ultrapure water
[5] = lipid nanoparticle containing siRNA, pH 7.4 Tris-HCl
[6] = mRNA lipid nanoparticle for in vivo experiment, PEG-modified lipid (PEG2000-DMG 1.5 mol %) present
[7] = mRNA lipid nanoparticle for in vivo experiment, PEG-modified lipid absent

Row | Particle size (nm) [1, 3] | PDI [1, 4] | Zeta potential (mV) [1, 5] | PDI [1, 6] | Particle size (nm) [1, 6] | Zeta potential (mV) [1, 6] | PDI [1, 7] | Particle size (nm) [1, 7] | Zeta potential (mV) [1, 7] | SMILES | LDH Assay [2]
1 | 117.1 nm | 0.085 | −7.75 mV |  |  |  |  |  |  | CCCCCCCC/C=C\CCCCCCCCC(CCCCCCC/C=C\CCCCCCCC)OC(=O)C(CC(=O)O)NC(=N)N (stereo not shown) [Comparative Example 2, 3-guanidino-4-(((9Z,27Z)-hexatriaconta-9,27-dien-18-yl)oxy)-4-oxobutanoic acid, reference compound] | ⊚ (When the obtained value was 0.50 or less, a rating of double-circle (excellent) was given)
2 | 137.0 nm | 0.329 | −7.66 mV |  |  |  |  |  |  | CCCCCCCC/C=C\CCCCCCCCC(CCCCCCC/C=C\CCCCCCCC)OC(=O)C(CCC(=O)O)NC(=N)N (stereo not shown) [Comparative Example 3, 4-guanidino-5-(((9Z,27Z)-hexatriaconta-9,27-dien-18-yl)oxy)-5-oxopentanoic acid, reference compound] | Δ (when the obtained value was more than 1.0 and less than 6.0, a rating of triangle (fair) was given)
3 | 116.5 nm | 0.169 | 6.98 mV |  |  |  |  |  |  | CCCCCCCC/C=C\CCCCCCCCC(CCCCCCC/C=C\CCCCCCCC)OC(=O)C(CC(=O)O)NC(=O)C(N)CCCNC(=N)N (stereo not shown) [Example 1, 3-(2-amino-5-guanidinopentanamido)-4-(((9Z,27Z)-hexatriaconta-9,27-dien-18-yl)oxy)-4-oxobutanoic acid] | ⊚ (When the obtained value was 0.50 or less, a rating of double-circle (excellent) was given)
4 | 119.7 nm | 0.099 | 9.59 mV | 0.19 | 92.8 nm | 16.71 mV | 0.10 | 119.7 nm | 3.92 mV | CCCCCCCC/C=C\CCCCCCCCC(CCCCCCC/C=C\CCCCCCCC)OC(=O)C(CCC(=O)O)NC(=O)C(N)CCCNC(=N)N (stereo not shown) [Example 2, 4-(2-amino-5-guanidinopentanamido)-5-(((9Z,27Z)-hexatriaconta-9,27-dien-18-yl)oxy)-5-oxopentanoic acid] | ⊚ (When the obtained value was 0.50 or less, a rating of double-circle (excellent) was given)
5 | 103.6 nm | 0.101 | 15.7 mV |  |  |  |  |  |  | CCCCCCCC/C=C\CCCCCCCCC(CCCCCCC/C=C\CCCCCCCC)OC(=O)C(CO)NC(=O)C(N)CCCNC(=N)N [Example 4, (9Z,27Z)-hexatriaconta-9,27-dien-18-yl (2S)-2-((S)-2-amino-5-guanidinopentanamido)-3-hydroxypropionate] | Δ (when the obtained value was more than 1.0 and less than 6.0, a rating of triangle (fair) was given)
6 | 109.2 nm | 0.084 | 15.2 mV |  |  |  |  |  |  | CCCCCCCC/C=C\CCCCCCCCC(CCCCCCC/C=C\CCCCCCCC)OC(=O)C(NC(=O)C(N)CCCNC(=N)N)C(C)O [Example 5, (9Z,27Z)-hexatriaconta-9,27-dien-18-yl (2S)-2-((S)-2-amino-5-guanidinopentanamido)-3-hydroxybutanoate] | ⊚ (When the obtained value was 0.50 or less, a rating of double-circle (excellent) was given)
7 | 125.9 nm | 0.118 | 21.9 mV |  |  |  |  |  |  | CCCCCCCC/C=C\CCCCCCCCC(CCCCCCC/C=C\CCCCCCCC)OC(=O)[C@H](CCSC)NC(=O)[C@@H](N)CCCNC(=N)N (stereo partly shown) [Example 6, (9Z,27Z)-hexatriaconta-9,27-dien-18-yl arginylmethioninate] | ◯ (when the obtained value was more than 0.50 and 1.0 or less, a rating of circle (good) was given)

Reference: patent publication US20240148664A1, “LIPID AND COMPOSITION” (SOGO PHARMACEUTICAL CO., LTD., priority 2021, published 2024)
